Laboratory results: patent US10261017B2, “Methods for detecting and categorizing skin sensitizers” (University of Mississippi, priority 2014, dated 2019)
Counter-ions that a name gives are not always drawn.

System: not given
Assay: not given
Details: published literature; cited from earlier work
For `CCC/C=C/C=O` [trans-2-Hexenal], the “LLNA Classification” value is listed as “moderate sensitizer”.

Same assay, conditions: reported results (Table 7); cited from earlier work
For `O=C1OC(=O)C2CCCCC12` (centres unmarked) [1,2-Cyclohexanedicarboxylic anhydride], the LLNA EC3 is given as 0.84%.
In the case of `CCC/C=C/C=O` [trans-2-Hexenal], the LLNA EC3 is given as 5.5%.
In the case of `CCOC(=O)/C=C\C(=O)OCC` [Diethyl maleate], the LLNA EC3 is listed as 5.8%.
In the case of `OCC=Cc1ccccc1` [Cinnamyl alcohol], the LLNA EC3 is listed as 21%.
For `CCC=CC=CC=O` [2,4-Heptadienal], the LLNA EC3 is listed as 4%.

System: thiol peptide
Assay: Cys-DPRA (Direct Peptide Reactivity Assay), literature data
Details: false negative
With `CCC/C=C/C=O` [trans-2-Hexenal] the “Cys-DPRA binary classification: FN” value was 0.
With `CCOC(=O)/C=C\C(=O)OCC` [Diethyl maleate] the “Cys-DPRA binary classification: FN” value was 0.
For `CCC=CC=CC=O` [2,4-Heptadienal], the “Cys-DPRA binary classification: FN” value was 0.
For `CC(C=O)Cc1ccc(C(C)(C)C)cc1` (centres unmarked) [Lilial], the “Cys-DPRA binary classification: FN” value was 0.
With `CC/C=C\CCCCC=O` [cis-6-Nonenal] the “Cys-DPRA binary classification: FN” value was 0.
In the case of `CC(=O)C(=O)CC(C)C` [5-Methyl-2,3-hexanedione], the “Cys-DPRA binary classification: FN” value is reported as 0.
For `Clc1ccccc1` [Chlorobenzene], the “Cys-DPRA binary classification: FN” value was 0.

Same assay, conditions: false positive
With `CCC/C=C/C=O` [trans-2-Hexenal] the “Cys-DPRA binary classification: FP” value was 0.
For `CCOC(=O)/C=C\C(=O)OCC` [Diethyl maleate], the “Cys-DPRA binary classification: FP” value was 0.
For `CCC=CC=CC=O` [2,4-Heptadienal], the “Cys-DPRA binary classification: FP” value was 0.
For `CC(C=O)Cc1ccc(C(C)(C)C)cc1` (centres unmarked) [Lilial], the “Cys-DPRA binary classification: FP” value was 1.
With `CC/C=C\CCCCC=O` [cis-6-Nonenal] the “Cys-DPRA binary classification: FP” value was 0.
With `CC(=O)C(=O)CC(C)C` [5-Methyl-2,3-hexanedione] the “Cys-DPRA binary classification: FP” value was 0.
In the case of `Clc1ccccc1` [Chlorobenzene], the “Cys-DPRA binary classification: FP” value is reported as 0.

Same assay, conditions: true negative
With `CCC/C=C/C=O` [trans-2-Hexenal] the “Cys-DPRA binary classification: TN” value was 0.
With `CCOC(=O)/C=C\C(=O)OCC` [Diethyl maleate] the “Cys-DPRA binary classification: TN” value was 0.
In the case of `CCC=CC=CC=O` [2,4-Heptadienal], the “Cys-DPRA binary classification: TN” value is reported as 0.
With `CC(C=O)Cc1ccc(C(C)(C)C)cc1` (centres unmarked) [Lilial] the “Cys-DPRA binary classification: TN” value was 0.
For `CC/C=C\CCCCC=O` [cis-6-Nonenal], the “Cys-DPRA binary classification: TN” value was 0.
In the case of `CC(=O)C(=O)CC(C)C` [5-Methyl-2,3-hexanedione], the “Cys-DPRA binary classification: TN” value is reported as 0.
With `Clc1ccccc1` [Chlorobenzene] the “Cys-DPRA binary classification: TN” value was 1.

Same assay, conditions: true positive
For `CCC/C=C/C=O` [trans-2-Hexenal], the “Cys-DPRA binary classification: TP” value was 1.
With `CCOC(=O)/C=C\C(=O)OCC` [Diethyl maleate] the “Cys-DPRA binary classification: TP” value was 1.
In the case of `CCC=CC=CC=O` [2,4-Heptadienal], the “Cys-DPRA binary classification: TP” value is reported as 1.
With `CC(C=O)Cc1ccc(C(C)(C)C)cc1` (centres unmarked) [Lilial] the “Cys-DPRA binary classification: TP” value was 0.
In the case of `CC/C=C\CCCCC=O` [cis-6-Nonenal], the “Cys-DPRA binary classification: TP” value is reported as 1.
With `CC(=O)C(=O)CC(C)C` [5-Methyl-2,3-hexanedione] the “Cys-DPRA binary classification: TP” value was 1.
For `Clc1ccccc1` [Chlorobenzene], the “Cys-DPRA binary classification: TP” value was 0.

System: ARE-dependent gene activity in a recombinant cell line
Assay: not given
Details: cited from earlier work
In the case of `Clc1ccccc1` [Chlorobenzene], the “KeratinoSens ™ EC3” value is given as >2000 µM.

Same assay, conditions: reported results (Table 7); cited from earlier work
For `O=C1OC(=O)C2CCCCC12` (centres unmarked) [1,2-Cyclohexanedicarboxylic anhydride], the “KeratinoSens ™ EC3” value is listed as >2000 µM.
For `CCC/C=C/C=O` [trans-2-Hexenal], the “KeratinoSens ™ EC3” value is given as 374.57 µM.
For `CCOC(=O)/C=C\C(=O)OCC` [Diethyl maleate], the “KeratinoSens ™ EC3” value is listed as 82.85 µM.
For `OCC=Cc1ccccc1` [Cinnamyl alcohol], the “KeratinoSens ™ EC3” value is given as >2000 µM.
For `CCC=CC=CC=O` [2,4-Heptadienal], the “KeratinoSens ™ EC3” value is given as 21.91 µM.
For `CC(C=O)Cc1ccc(C(C)(C)C)cc1` (centres unmarked) [Lilial], the “KeratinoSens ™ EC3” value is listed as >2000 µM.
For `CC/C=C\CCCCC=O` [cis-6-Nonenal], the “KeratinoSens ™ EC3” value is listed as 687.67 µM.
For `CC(=O)C(=O)CC(C)C` [5-Methyl-2,3-hexanedione], the “KeratinoSens ™ EC3” value is listed as 332.21 µM.

System: not listed separately
Assay: Microplate spectrophotometric method (DCYA assay), fluorescence end-point
Details: RI = reactivity index; 2 equiv. electrophile, pH 10 buffer
With `O=C1OC(=O)C2CCCCC12` (centres unmarked) [1,2-Cyclohexanedicarboxylic anhydride] the “DCYA 100-RI” value was 104.6.
With `CCC/C=C/C=O` [trans-2-Hexenal] the “DCYA 100-RI” value was 29.9.
In the case of `CCOC(=O)/C=C\C(=O)OCC` [Diethyl maleate], the “DCYA 100-RI” value is reported as −8.84.
For `OCC=Cc1ccccc1` [Cinnamyl alcohol], the “DCYA 100-RI” value was 105.0.
In the case of `CCC=CC=CC=O` [2,4-Heptadienal], the “DCYA 100-RI” value is reported as 54.1.
With `CC/C=C\CCCCC=O` [cis-6-Nonenal] the “DCYA 100-RI” value was 107.3.
With `CC(=O)C(=O)CC(C)C` [5-Methyl-2,3-hexanedione] the “DCYA 100-RI” value was 90.3.
In the case of `Clc1ccccc1` [Chlorobenzene], the “DCYA 100-RI” value is reported as 97.8.

Same assay, conditions: false negative
In the case of `CCC/C=C/C=O` [trans-2-Hexenal], the “DCYA binary classification: FN” value is reported as 0.
For `CCOC(=O)/C=C\C(=O)OCC` [Diethyl maleate], the “DCYA binary classification: FN” value was 0.
For `CCC=CC=CC=O` [2,4-Heptadienal], the “DCYA binary classification: FN” value was 0.
For `CC(C=O)Cc1ccc(C(C)(C)C)cc1` (centres unmarked) [Lilial], the “DCYA binary classification: FN” value was 1.
For `CC/C=C\CCCCC=O` [cis-6-Nonenal], the “DCYA binary classification: FN” value was 1.
In the case of `CC(=O)C(=O)CC(C)C` [5-Methyl-2,3-hexanedione], the “DCYA binary classification: FN” value is reported as 0.
For `Clc1ccccc1` [Chlorobenzene], the “DCYA binary classification: FN” value was 0.

Same assay, conditions: false positive
With `CCC/C=C/C=O` [trans-2-Hexenal] the “DCYA binary classification: FP” value was 0.
With `CCOC(=O)/C=C\C(=O)OCC` [Diethyl maleate] the “DCYA binary classification: FP” value was 0.
For `CCC=CC=CC=O` [2,4-Heptadienal], the “DCYA binary classification: FP” value was 0.
For `CC(C=O)Cc1ccc(C(C)(C)C)cc1` (centres unmarked) [Lilial], the “DCYA binary classification: FP” value was 0.
In the case of `CC/C=C\CCCCC=O` [cis-6-Nonenal], the “DCYA binary classification: FP” value is reported as 0.
With `CC(=O)C(=O)CC(C)C` [5-Methyl-2,3-hexanedione] the “DCYA binary classification: FP” value was 0.
In the case of `Clc1ccccc1` [Chlorobenzene], the “DCYA binary classification: FP” value is reported as 0.

Same assay, conditions: microplate spectrophotometric method
In the case of `CC(C=O)Cc1ccc(C(C)(C)C)cc1` (centres unmarked) [Lilial], the “DCYA assay reactivity / classification in words” value is reported as “non-reactive”.

Same assay, conditions: true negative
In the case of `CCC/C=C/C=O` [trans-2-Hexenal], the “DCYA binary classification: TN” value is reported as 0.
For `CCOC(=O)/C=C\C(=O)OCC` [Diethyl maleate], the “DCYA binary classification: TN” value was 0.
In the case of `CCC=CC=CC=O` [2,4-Heptadienal], the “DCYA binary classification: TN” value is reported as 0.
With `CC(C=O)Cc1ccc(C(C)(C)C)cc1` (centres unmarked) [Lilial] the “DCYA binary classification: TN” value was 0.
With `CC/C=C\CCCCC=O` [cis-6-Nonenal] the “DCYA binary classification: TN” value was 0.
With `CC(=O)C(=O)CC(C)C` [5-Methyl-2,3-hexanedione] the “DCYA binary classification: TN” value was 0.
For `Clc1ccccc1` [Chlorobenzene], the “DCYA binary classification: TN” value was 1.

Same assay, conditions: true positive; positive if 100-RI <95
For `CCC/C=C/C=O` [trans-2-Hexenal], the “DCYA binary classification: TP” value was 1.
With `CCOC(=O)/C=C\C(=O)OCC` [Diethyl maleate] the “DCYA binary classification: TP” value was 1.
With `CCC=CC=CC=O` [2,4-Heptadienal] the “DCYA binary classification: TP” value was 1.
In the case of `CC(C=O)Cc1ccc(C(C)(C)C)cc1` (centres unmarked) [Lilial], the “DCYA binary classification: TP” value is reported as 0.
For `CC/C=C\CCCCC=O` [cis-6-Nonenal], the “DCYA binary classification: TP” value was 0.
In the case of `CC(=O)C(=O)CC(C)C` [5-Methyl-2,3-hexanedione], the “DCYA binary classification: TP” value is reported as 1.
In the case of `Clc1ccccc1` [Chlorobenzene], the “DCYA binary classification: TP” value is reported as 0.

System: thiol peptide
Assay: not given
Details: cited from earlier work
For `Clc1ccccc1` [Chlorobenzene], the “Cys-DPRA % Pept. remain.” value is given as 99.6%.

Same assay, conditions: reported results from the literature; cited from earlier work
For `O=C1OC(=O)C2CCCCC12` (centres unmarked) [1,2-Cyclohexanedicarboxylic anhydride], the “Cys-DPRA % Pept. remain.” value is given as 84.3%.
For `CCC/C=C/C=O` [trans-2-Hexenal], the “Cys-DPRA % Pept. remain.” value is listed as 2.1%.
For `CCOC(=O)/C=C\C(=O)OCC` [Diethyl maleate], the “Cys-DPRA % Pept. remain.” value is listed as 0%.
In the case of `OCC=Cc1ccccc1` [Cinnamyl alcohol], the “Cys-DPRA % Pept. remain.” value is given as 100%.
In the case of `CCC=CC=CC=O` [2,4-Heptadienal], the “Cys-DPRA % Pept. remain.” value is given as 2.7%.
For `CC(C=O)Cc1ccc(C(C)(C)C)cc1` (centres unmarked) [Lilial], the “Cys-DPRA % Pept. remain.” value is given as 86%.
For `CC/C=C\CCCCC=O` [cis-6-Nonenal], the “Cys-DPRA % Pept. remain.” value is given as 92%.
In the case of `CC(=O)C(=O)CC(C)C` [5-Methyl-2,3-hexanedione], the “Cys-DPRA % Pept. remain.” value is given as 74.2%.
